Source: patent US11780868B1, “Homoleptic metal coordination complexes as antifungal agents” (King Abdulaziz University, priority 2023, dated 2023)

Experiments:
Type in all cases: cell-based, Candida albicans
C. albicans 4251 [1] = assay: JC-10 mitochondrial membrane potential assay; conditions: 4 h, negative control 2.65
Description: (§1) To examine the effect of C1 on the induction of cellular apoptosis in C. albicans cells, crucial apoptotic markers were observed. For this purpose, C. albicans 4251 and C. albicans 5112 cells were subjected to protoplast preparation by utilizing a method described previously by Srivastava et al. in 2020 through their research study. […] Later on, the cells were washed and incubated for 10 min at room temperature in protoplast buffer-1 (1M sorbitol, 0.05M tris base, 0.01M MgCl2, 0.03M DTT, pH 7.4). The cells were spun at 1500 rpm for 5 min and the pellet was resuspended in protoplast buffer-2 (1M sorbitol, 0.05M tris base, 0.01M MgCl2, 0.001M DTT, pH 7.4) supplemented with […] enzyme (1 μg/mL) and incubated for 1 h at room temperature. Afterwards, the cell suspension was again centrifuged, and the pellet was resuspended and incubated for 20 min at room temperature in protoplast buffer-3 (1M sorbitol, 0.05M tris base, 0.01M MgCl2, pH 7.4). A final washing (1500 rpm for 5 min) was given to the cells and the pellet consisting of C. albicans protoplasts was resuspended in fresh PBS and was stored at 4° C. until further use. Measurement of mitochondrial membrane potential in C. albicans was carried out and the potential of C1 in destabilising mitochondrial membrane potential (Δψm) in C. albicans was established by JC-10 mitochondrial membrane potential assay kit (Abeam, Cambridge, UK). The experiment was performed according to manufacturer instructions. 90 μL of prepared protoplast of C. albicans 4251 and C. albicans 5112 was added to a 96-well microplate (with black walls and clear bottom), followed by the addition of 50 μL/well of JC-10 dye-loading solution. The microplate was incubated for 1 hour at 37° C. in the dark. This was followed by the addition of 50 μL/well of assay buffer B. The microplate was then immediately centrifuged at 800 rpm for 2 minutes. The fluorescence intensity was monitored at an Ex/Em=490/530 nm (present in apoptotic cells, monomeric form and green fluorescence; represented as X) and 540/590 nm (present in live cells, dye aggregates and red fluorescence; represented as Y) using a SpectraMax® ID3 Multimode Plate Reader (Molecular Devices, LLC., USA). The ratio between the aggregate and monomeric forms was measured to find the change in mitochondrial membrane potential. The mitochondrial membrane depolarization is indicated by decreasing ratio values.

C. albicans 5112 [2] = assay: JC-10 mitochondrial membrane potential assay; conditions: 4 h, negative control 2.92
Description: as §1

C. albicans 4554 = assay: Broth microdilution MIC/MFC (CLSI M27-A4); conditions: C. albicans 4554 (Flz sensitive)
Description: (§2) In this work, nine strains of C. albicans procured from Charlotte Maxeke Johannesburg Academic Hospital under ethical clearance number M000402 were employed (Table 1). All the C. albicans strains were preserved at −70° C. deep freezer in 50% (v/v) anhydrous glycerol (Sigma-Aldrich St. Louis, MO, U.S.A.). For conducting experiments, cultures were revived in Sabouraud Dextrose broth (SDB; Merck, Germany) at 37° C. and 120 rpm for 24 h. Additionally, the RPMI 1640 medium and MOPS (Sigma-Aldrich, USA) were prepared as described by the Clinical and Laboratory Standards Institute (CLSI).
(§3) The activity of C1 against Candida species (n=9) was first estimated in terms of minimum inhibitory concentration (MIC) and minimum fungicidal concentration (MFC). […] Briefly, stock solutions of Flz (used as reference; Sigma-Aldrich St. Louis, MO, U.S.A.) and the synthesized compound was prepared in 1% dimethyl sulfoxide (DMSO; Sigma-Aldrich St. Louis, MO, U.S.A.) and the test concentrations were formulated in RPMI 1640-MOPS medium. A two-fold dilution of the compound (1250-0.61 μg/mL) and reference drug (128-0.062 μg/mL) was prepared in 96 well plates which were then seeded with C. albicans inoculum (1×10^6 cells/mL) and incubated at 37° C. for 24 h. In every set of experiments, sterility control, 1% DMSO as negative control and growth control were included. Growth was quantified by reading the optical density at 620 nm in a UV-1800 SHIMADZU spectrophotometer (Shimadzu Corporation, Japan). The MIC was determined as the lowest concentration that inhibited the growth of Candida strains. To determine MFC, each well without visible growth was subcultured onto the SDA plates for 24 hours at 37° C. The lowest concentration killing ≥99.9% of Candida was taken as the MFC value of the test compound.

C. albicans 4324 = assay: Broth microdilution MIC/MFC (CLSI M27-A4); conditions: C. albicans 4324 (Flz resistant)
Description: as §2, §3

C. albicans 4251 [3] = assay: Broth microdilution MIC/MFC (CLSI M27-A4); conditions: C. albicans 4251 (Flz sensitive)
Description: as §2, §3

C. albicans 5112 [4] = assay: Broth microdilution MIC/MFC (CLSI M27-A4); conditions: C. albicans 5112 (Flz resistant)
Description: as §2, §3

C. albicans 4085 = assay: Broth microdilution MIC/MFC (CLSI M27-A4); conditions: C. albicans 4085 (Flz resistant)
Description: as §2, §3

C. albicans 4175 = assay: Broth microdilution MIC/MFC (CLSI M27-A4); conditions: C. albicans 4175 (Flz sensitive)
Description: as §2, §3

C. albicans 4106 = assay: Broth microdilution MIC/MFC (CLSI M27-A4); conditions: C. albicans 4106 (Flz resistant)
Description: as §2, §3

C. albicans 4180 = assay: Broth microdilution MIC/MFC (CLSI M27-A4); conditions: C. albicans 4180 (Flz sensitive)
Description: as §2, §3

C. albicans SC5314 = assay: Broth microdilution MIC/MFC (CLSI M27-A4); conditions: C. albicans SC5314 (control)
Description: as §2, §3

Brc1ccc([O][Co][O]c2ccc(Br)cc2C=Nc2ccc3c(c2)OCCO3)c(C=Nc2ccc3c(c2)OCCO3)c1 [Complex C1, [Co(L)2]]
average fluorescence ratio JC-10 aggregates/JC-10 monomers (C. albicans 4251 [1]; C. albicans 4251, 0.5×MIC): 2.04
average fluorescence ratio JC-10 aggregates/JC-10 monomers (C. albicans 4251 [1]; C. albicans 4251, 1×MIC): 1.6
average fluorescence ratio JC-10 aggregates/JC-10 monomers (C. albicans 5112 [2]; C. albicans 5112, 0.5×MIC): 2.24
average fluorescence ratio JC-10 aggregates/JC-10 monomers (C. albicans 5112 [2]; C. albicans 5112, 1×MIC): 1.71
Median MIC (C. albicans 4554; 37° C., 24 h): 2.44 µg/mL
Median MFC (C. albicans 4554; killing ≥99.9%): 4.88 µg/mL
Median MIC (C. albicans 4324; 37° C., 24 h): 9.76 µg/mL
Median MFC (C. albicans 4324; killing ≥99.9%): 19.53 µg/mL
Median MIC (C. albicans 4251 [3]; 37° C., 24 h): 4.88 µg/mL
Median MFC (C. albicans 4251 [3]; killing ≥99.9%): 9.76 µg/mL
Median MIC (C. albicans 5112 [4]; 37° C., 24 h): 19.53 µg/mL
Median MFC (C. albicans 5112 [4]; killing ≥99.9%): 78.12 µg/mL
Median MIC (C. albicans 4085; 37° C., 24 h): 9.76 µg/mL
Median MFC (C. albicans 4085; killing ≥99.9%): 19.53 µg/mL
Median MIC (C. albicans 4175; 37° C., 24 h): 1.22 µg/mL
Median MFC (C. albicans 4175; killing ≥99.9%): 2.44 µg/mL
Median MIC (C. albicans 4106; 37° C., 24 h): 9.76 µg/mL
Median MFC (C. albicans 4106; killing ≥99.9%): 19.53 µg/mL
Median MIC (C. albicans 4180; 37° C., 24 h): 2.44 µg/mL
Median MFC (C. albicans 4180; killing ≥99.9%): 4.88 µg/mL
Median MIC (C. albicans SC5314; 37° C., 24 h): 2.44 µg/mL
Median MFC (C. albicans SC5314; killing ≥99.9%): 4.88 µg/mL
